US20090099167A1, “Organic compounds” (Novartis Institutes for Biomedical Research, priority 2004, published 2009)

What was measured:
[1] = molecular target: T1, human RET (Homo sapiens, UniProt P07949); test: RET kinase inhibition, GST-wtRET or GST-RET-Men2B, 33P incorporation into poly(Glu,Tyr); type: biochemical; details: Table 4
T1 construct: fused on or other part: N-terminal GST tag (pFB-GSTX3 vector)
Protocol: The inhibition of RET is measured as follows: The baculovirus donor vector pFB-GSTX3 is used to generate a recombinant baculovirus that expresses the amino acid region 658-1072 (Swiss prot No. Q9BTB0) of the intra-cytoplasmic kinase domain of human RET-Men2A which corresponds to the wild-type kinase domain of RET (wtRET) and RET-Men2B, which differs from the wtRET by the activating mutation in the activation loop M918T. The coding sequences for the cytoplasmic domain of wtRET and RET-Men2B are amplified by PCR from the plasmids pBABEpuro RET-Men2A and pBABEpuro RET-Men2B. The amplified DNA fragments and the pFB-GSTX3 vector are made compatible for ligation by digestion with SalI and KpnI. Ligation of these DNA fragments results in the baculovirus donor plasmid pFB-GX3-RET-Men2A and pFB-GX3-RET-Men2B, respectively. Production of virus: Transfer vectors containing the kinase domains are transfected into the DH10Bac cell line (GIBCO) and plated on selective agar plates. Colonies without insertion of the fusion sequence into the viral genome (carried by the bacteria) are blue. Single, white colonies are picked and viral DNA (bacmid) are isolated from the bacteria by standard plasmid purification procedures. Sf9 cells or Sf21 (American Type Culture Collection) cells are then transfected in 25 cm^2 flasks with the viral DNA using Cellfectin reagent. Determination of small scale protein expression in Sf9 cells: Virus-containing media is collected from the transfected cell culture and used for infection to increase its titer. Virus-containing media obtained after two rounds of infection is used for large-scale protein expression. For large-scale protein expression 100 cm^2 round tissue culture plates are seeded with 5×10^7 cells/plate and infected with 1 mL of virus-containing media (approximately 5 MOIs). After 3 days, the cells are scraped off the plate and centrifuged at 500 rpm for 5 minutes. Cell pellets from 10-20, 100 cm^2 plates, are re-suspended in 50 mL of ice-cold lysis buffer (25 mM tris-HCl, pH 7.5, 2 mM EDTA, 1% NP-40, 1 mM DTT, 1 mM P MSF). The cells are stirred on ice for 15 minutes and then centrifuged at 5,000 rpms for 20 minutes. Purification of GST-tagged proteins: The centrifuged cell lysate is loaded onto a 2 mL glutathione-sepharose column (Pharmacia) and is washed 3× with 10 mL of 25 mM tris-HCl, pH 7.5, 2 mM EDTA, 1 mM DTT, 200 mM NaCl. The GST-tagged proteins are then eluted by 10 applications (1 mL each) of 25 mM tris-HCl, pH 7.5, 10 mM reduced-glutathione, 100 mM NaCl, 1 mM DTT, 10% glycerol and stored at −70° C. Measure of enzyme activity: Tyrosine protein kinase assays with either purified GST-wtRET or GST-RET-Men2B protein are carried out in a final volume of 30 μL containing 15 ng of either GST-wtRET or GST-RET-Men2B protein, 20 mM tris-HCl, pH 7.5, 1 mM MnCl2, 10 mM MgCl2, 1 mM DTT, 3 μg/mL poly(Glu,Tyr) 4:1, 1% DMSO, 2.0 μM ATP (γ-[^33P]-ATP 0.1 μCi). The activity is assayed in the presence or absence of inhibitors, by measuring the incorporation of ^33P from [γ^33P] ATP into poly(Glu,Tyr) 4:1. The assay is carried out in 96-well plates at ambient temperature for 15 minutes under conditions described below and terminated by the addition of 20 μL of 125 mM EDTA. Subsequently, 40 μL of the reaction mixture are transferred onto Immobilon-PVDF membrane (Millipore) previously soaked for 5 minutes with methanol, rinsed with water, then soaked for 5 minutes with 0.5% H3PO4 and mounted on vacuum manifold with disconnected vacuum source. After spotting all samples, vacuum is connected and each well-rinsed with 200 μL 0.5% H3PO4. Membranes are removed and washed 4× on a shaker with 1.0% H3PO4, once with ethanol. Membranes are counted after drying at ambient temperature, mounting in Packard TopCount 96-well frame, and addition of 10 μL/well of Microscint™ (Packard). IC50 values are calculated by linear regression analysis of the percentage inhibition of each compound in duplicate, at 4 concentrations (usually 0.01, 0.1, 1 and 10 μM). […]

[2] = molecular target: T2, human VEGF-R2 receptor (KDR) (Homo sapiens, UniProt P35968); test: VEGF-induced KDR autophosphorylation in transfected CHO cells, sandwich ELISA; type: cell-based; details: Table 4; read-out: KDR, activity (IC50 for kinase inhibition)
T2 construct: expressed in transfected cells; host or cells: CHO cells
T2 sequence (P35968 20-1356): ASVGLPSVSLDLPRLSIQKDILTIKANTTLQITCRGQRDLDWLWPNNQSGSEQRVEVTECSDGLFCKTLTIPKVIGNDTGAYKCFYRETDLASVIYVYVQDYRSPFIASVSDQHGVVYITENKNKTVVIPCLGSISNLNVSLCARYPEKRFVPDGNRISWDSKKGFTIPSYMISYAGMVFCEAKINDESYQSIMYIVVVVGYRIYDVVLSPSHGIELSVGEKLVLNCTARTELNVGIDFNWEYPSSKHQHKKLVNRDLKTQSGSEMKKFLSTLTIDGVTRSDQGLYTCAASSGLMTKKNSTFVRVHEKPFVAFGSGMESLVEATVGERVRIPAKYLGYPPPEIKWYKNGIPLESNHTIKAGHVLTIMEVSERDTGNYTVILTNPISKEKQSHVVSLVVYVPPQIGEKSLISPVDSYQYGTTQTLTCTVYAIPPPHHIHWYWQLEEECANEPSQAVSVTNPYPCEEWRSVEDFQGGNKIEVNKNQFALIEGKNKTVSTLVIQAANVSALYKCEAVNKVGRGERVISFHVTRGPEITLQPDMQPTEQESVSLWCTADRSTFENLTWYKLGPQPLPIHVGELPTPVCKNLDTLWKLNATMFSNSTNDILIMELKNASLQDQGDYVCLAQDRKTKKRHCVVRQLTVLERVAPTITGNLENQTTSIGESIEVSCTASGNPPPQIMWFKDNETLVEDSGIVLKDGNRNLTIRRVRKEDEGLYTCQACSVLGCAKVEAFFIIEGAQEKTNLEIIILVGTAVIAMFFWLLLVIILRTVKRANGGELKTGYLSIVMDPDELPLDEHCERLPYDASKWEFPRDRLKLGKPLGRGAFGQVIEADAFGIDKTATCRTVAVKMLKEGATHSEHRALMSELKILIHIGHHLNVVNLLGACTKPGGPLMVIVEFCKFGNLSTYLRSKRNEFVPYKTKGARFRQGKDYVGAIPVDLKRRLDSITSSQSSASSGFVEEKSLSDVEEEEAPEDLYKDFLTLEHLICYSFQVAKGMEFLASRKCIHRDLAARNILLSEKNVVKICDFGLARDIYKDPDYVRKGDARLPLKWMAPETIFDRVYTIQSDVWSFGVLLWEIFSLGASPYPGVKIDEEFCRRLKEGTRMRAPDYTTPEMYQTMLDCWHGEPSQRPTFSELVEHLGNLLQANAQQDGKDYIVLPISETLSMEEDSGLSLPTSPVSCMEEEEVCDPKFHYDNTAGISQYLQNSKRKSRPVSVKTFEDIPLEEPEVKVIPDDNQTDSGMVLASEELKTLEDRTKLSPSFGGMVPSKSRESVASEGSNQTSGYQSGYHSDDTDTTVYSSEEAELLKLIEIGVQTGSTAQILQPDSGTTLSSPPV

[3] = molecular target: T3, c-Kit (Homo sapiens, UniProt P10721); test: c-kit kinase inhibition; type: biochemical; details: Table 4
T3 construct: whole cytoplasmic domain of c-Kit (aa 544-976); made in house; host or cells: Sf9 or High Five (baculovirus)
T3 sequence (P10721 544-976): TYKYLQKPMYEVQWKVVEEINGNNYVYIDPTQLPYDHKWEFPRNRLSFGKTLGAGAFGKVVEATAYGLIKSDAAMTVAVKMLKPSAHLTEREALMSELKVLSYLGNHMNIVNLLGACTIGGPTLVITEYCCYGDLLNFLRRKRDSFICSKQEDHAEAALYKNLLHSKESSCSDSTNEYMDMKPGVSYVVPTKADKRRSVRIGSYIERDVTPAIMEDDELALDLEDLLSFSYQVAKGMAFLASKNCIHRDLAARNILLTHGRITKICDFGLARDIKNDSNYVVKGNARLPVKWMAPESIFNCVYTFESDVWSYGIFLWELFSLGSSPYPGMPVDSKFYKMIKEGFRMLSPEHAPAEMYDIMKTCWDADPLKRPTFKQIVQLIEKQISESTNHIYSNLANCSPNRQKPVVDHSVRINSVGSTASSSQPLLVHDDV

T1 sequence (P07949 1-1072 isoform P07949-2): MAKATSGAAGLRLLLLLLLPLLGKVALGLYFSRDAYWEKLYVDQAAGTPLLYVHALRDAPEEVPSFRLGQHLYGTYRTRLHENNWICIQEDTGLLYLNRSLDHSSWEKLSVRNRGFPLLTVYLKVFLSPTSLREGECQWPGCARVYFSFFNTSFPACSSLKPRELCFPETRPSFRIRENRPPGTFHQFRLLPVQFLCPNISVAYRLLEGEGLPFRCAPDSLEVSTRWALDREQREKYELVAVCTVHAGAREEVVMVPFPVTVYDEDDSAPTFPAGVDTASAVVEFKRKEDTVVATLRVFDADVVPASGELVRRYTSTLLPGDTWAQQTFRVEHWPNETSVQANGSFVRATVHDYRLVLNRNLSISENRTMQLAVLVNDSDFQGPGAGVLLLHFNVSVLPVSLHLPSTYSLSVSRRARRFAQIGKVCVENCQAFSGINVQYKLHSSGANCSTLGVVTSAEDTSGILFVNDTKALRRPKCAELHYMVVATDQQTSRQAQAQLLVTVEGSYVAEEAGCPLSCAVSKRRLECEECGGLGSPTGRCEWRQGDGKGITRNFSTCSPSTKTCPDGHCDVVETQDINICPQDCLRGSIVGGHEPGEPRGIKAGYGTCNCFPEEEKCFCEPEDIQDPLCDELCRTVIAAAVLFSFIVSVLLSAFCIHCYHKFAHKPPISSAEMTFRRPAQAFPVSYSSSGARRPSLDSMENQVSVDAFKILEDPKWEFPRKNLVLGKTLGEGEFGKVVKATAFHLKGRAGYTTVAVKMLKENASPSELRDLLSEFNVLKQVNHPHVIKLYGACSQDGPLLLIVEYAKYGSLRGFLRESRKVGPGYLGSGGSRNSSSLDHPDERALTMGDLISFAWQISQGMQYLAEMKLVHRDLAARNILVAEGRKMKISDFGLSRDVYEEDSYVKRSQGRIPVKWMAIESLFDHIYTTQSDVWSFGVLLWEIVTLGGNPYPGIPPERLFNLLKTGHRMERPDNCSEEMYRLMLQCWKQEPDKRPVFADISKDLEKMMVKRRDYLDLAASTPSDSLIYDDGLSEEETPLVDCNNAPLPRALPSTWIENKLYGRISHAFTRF

Row | IC50 [1] [µM] | IC50 [2] [µM] | IC50 [3] [µM] | SMILES
1 | < 10 | < 10 | < 10 | CN1CCN(c2ccc(-c3cnn4c(N)c(-c5cccc(O)c5)cnc34)cc2)CC1 [Example 1, 3-{7-Amino-3-[4-(4-methyl-piperazin-1-yl)-phenyl]-pyrazolo[1,5-a]pyrimidin-6-yl}-phenol]
2 | < 10 | < 10 |  | CN1CCN(c2cccc(-c3cnn4c(N)c(-c5cccc(O)c5)cnc34)c2)CC1 [Example 29, 3-{7-Amino-3-[3-(4-methyl-piperazin-1-yl)-phenyl]-pyrazolo[1,5-a]pyrimidin-6-yl}-phenol]

The remaining lines, values behind:

Row | SMILES | IC50 [1] [µM] | IC50 [2] [µM] | IC50 [3] [µM]
3 | CN1CCN(c2cccc(-c3cnn4c(N)c(-c5ccc(O)cc5)cnc34)c2)CC1 [Example 39, 4-{7-Amino-3-[3-(4-methyl-piperazin-1-yl)-phenyl]-pyrazolo[1,5-a]pyrimidin-6-yl}-phenol] | < 10 |  | 
4 | COc1ccccc1-c1cnn2c(N)c(-c3cccc(O)c3)cnc12 [Example 48, 3-[7-Amino-3-(2-methoxy-phenyl)-pyrazolo[1,5-a]pyrimidin-6-yl]-phenol] | < 10 |  | 
5 | Nc1c(-c2cccc(O)c2)cnc2c(-c3cccnc3)cnn12 [Example 46, 3-[7-Amino-3-pyridin-3-yl-pyrazolo[1,5-a]pyrimidin-6-yl]-phenol] |  | < 10 | 
